From ChEMBL document CHEMBL3045331, “A clubbed quinazolinone and 4-thiazolidinone as potential antimicrobial agents” (2012)
Converted amounts (≈) assume the structure as drawn.

Tests used:
Type in all cases: functional
Candida albicans = experiment: Antifungal activity against Candida albicans MTCC 227 after 48 hr by spot subculture method; conditions: MTCC 227, 48 h
Streptococcus pyogenes = experiment: Antibacterial activity against Streptococcus pyogenes MTCC-442 after 24 hr by serial broth dilution method; conditions: MTCC-442, 24 h
Aspergillus clavatus = experiment: Antifungal activity against Aspergillus clavatus MTCC 1323 after 48 hr by spot subculture method; conditions: MTCC 1323, 48 h
Aspergillus niger = experiment: Antifungal activity against Aspergillus niger MTCC 282 after 48 hr by spot subculture method; conditions: MTCC 282, 48 h
Pseudomonas aeruginosa = experiment: Antibacterial activity against Pseudomonas aeruginosa MTCC-1688 after 24 hr by serial broth dilution method; conditions: MTCC-1688, 24 h
Staphylococcus aureus = experiment: Antibacterial activity against Staphylococcus aureus MTCC-96 after 24 hr by serial broth dilution method; conditions: MTCC-96, 24 h
Escherichia coli = experiment: Antibacterial activity against Escherichia coli MTCC 443 after 24 hr by serial broth dilution method; conditions: MTCC 443, 24 h

MIC99 (Candida albicans) | MIC99 (Streptococcus pyogenes) | MIC99 (Aspergillus clavatus) | MIC99 (Aspergillus niger) | MIC99 (Pseudomonas aeruginosa) | MIC99 (Staphylococcus aureus) | MIC99 (Escherichia coli) | Compound
100 µg/mL (≈ 149 µM) | 500 µg/mL (≈ 745 µM) | 1000 µg/mL (≈ 1490 µM) | 1000 µg/mL (≈ 1490 µM) | 100 µg/mL (≈ 149 µM) | 500 µg/mL (≈ 745 µM) | 50 µg/mL (≈ 74.5 µM) | Cc1ccc(-c2nc3ccccc3c(=O)n2-c2ccc(C(=O)NN3C(=O)/C(=C/c4ccc(Cl)cc4)SC3c3ccc(O)cc3)cc2)cc1 (stereo not given)
100 µg/mL (≈ 153 µM) | 250 µg/mL (≈ 382 µM) | 1000 µg/mL (≈ 1530 µM) | 500 µg/mL (≈ 764 µM) | 50 µg/mL (≈ 76.4 µM) | 100 µg/mL (≈ 153 µM) | 500 µg/mL (≈ 764 µM) | Cc1ccc(-c2nc3ccccc3c(=O)n2-c2ccc(C(=O)NN3C(=O)/C(=C/c4ccc(F)cc4)SC3c3ccc(O)cc3)cc2)cc1 (stereo not given)
1000 µg/mL (≈ 1530 µM) | 50 µg/mL (≈ 76.6 µM) | 100 µg/mL (≈ 153 µM) | 1000 µg/mL (≈ 1530 µM) | 500 µg/mL (≈ 766 µM) | 100 µg/mL (≈ 153 µM) | 100 µg/mL (≈ 153 µM) | Cc1ccc(-c2nc3ccccc3c(=O)n2-c2ccc(C(=O)NN3C(=O)/C(=C/c4ccc(O)cc4)SC3c3ccc(O)cc3)cc2)cc1 (stereo not given)
1000 µg/mL (≈ 1490 µM) | 100 µg/mL (≈ 149 µM) | 1000 µg/mL (≈ 1490 µM) | 1000 µg/mL (≈ 1490 µM) | 500 µg/mL (≈ 745 µM) | 500 µg/mL (≈ 745 µM) | 200 µg/mL (≈ 298 µM) | Cc1ccc(-c2nc3ccccc3c(=O)n2-c2ccc(C(=O)NN3C(=O)/C(=C/c4ccccc4Cl)SC3c3ccc(O)cc3)cc2)cc1 (stereo not given)
500 µg/mL (≈ 750 µM) | 500 µg/mL (≈ 750 µM) | 500 µg/mL (≈ 750 µM) | 500 µg/mL (≈ 750 µM) | 100 µg/mL (≈ 150 µM) | 100 µg/mL (≈ 150 µM) | 500 µg/mL (≈ 750 µM) | COc1ccccc1/C=C1\SC(c2ccc(O)cc2)N(NC(=O)c2ccc(-n3c(-c4ccc(C)cc4)nc4ccccc4c3=O)cc2)C1=O (stereo not given)
500 µg/mL (≈ 785 µM) | 100 µg/mL (≈ 157 µM) | 1000 µg/mL (≈ 1570 µM) | 1000 µg/mL (≈ 1570 µM) | 500 µg/mL (≈ 785 µM) | 500 µg/mL (≈ 785 µM) | 200 µg/mL (≈ 314 µM) | Cc1ccc(-c2nc3ccccc3c(=O)n2-c2ccc(C(=O)NN3C(=O)/C(=C/c4ccccc4)SC3c3ccc(O)cc3)cc2)cc1 (stereo not given)

More lines, now with the values behind:

Compound | MIC99 (Candida albicans) | MIC99 (Streptococcus pyogenes) | MIC99 (Aspergillus clavatus) | MIC99 (Aspergillus niger) | MIC99 (Pseudomonas aeruginosa) | MIC99 (Staphylococcus aureus) | MIC99 (Escherichia coli)
Cc1ccc(-c2nc3ccccc3c(=O)n2-c2ccc(C(=O)NN3C(=O)/C(=C/c4cc(Br)ccc4O)SC3c3ccc(O)cc3)cc2)cc1 (stereo not given) | 500 µg/mL (≈ 683 µM) | 100 µg/mL (≈ 137 µM) | 100 µg/mL (≈ 137 µM) | 1000 µg/mL (≈ 1370 µM) | 500 µg/mL (≈ 683 µM) | 250 µg/mL (≈ 342 µM) | 500 µg/mL (≈ 683 µM)
Cc1ccc(-c2nc3ccccc3c(=O)n2-c2ccc(C(=O)NN3C(=O)/C(=C/c4c(Cl)cccc4Cl)SC3c3ccc(O)cc3)cc2)cc1 (stereo not given) | 500 µg/mL (≈ 709 µM) | 100 µg/mL (≈ 142 µM) | 1000 µg/mL (≈ 1420 µM) | 100 µg/mL (≈ 142 µM) | 200 µg/mL (≈ 283 µM) | 100 µg/mL (≈ 142 µM) | 50 µg/mL (≈ 70.9 µM)
Cc1ccc(-c2nc3ccccc3c(=O)n2-c2ccc(C(=O)NN3C(=O)/C(=C/c4ccc5ccccc5c4O)SC3c3ccc(O)cc3)cc2)cc1 (stereo not given) | 100 µg/mL (≈ 142 µM) | 100 µg/mL (≈ 142 µM) | 100 µg/mL (≈ 142 µM) | 1000 µg/mL (≈ 1420 µM) | 50 µg/mL (≈ 71.1 µM) | 100 µg/mL (≈ 142 µM) | 100 µg/mL (≈ 142 µM)
Cc1ccc(-c2nc3ccccc3c(=O)n2-c2ccc(C(=O)NN3C(=O)/C(=C/c4cccc([N+](=O)[O-])c4)SC3c3ccc(O)cc3)cc2)cc1 (stereo not given) | 100 µg/mL (≈ 147 µM) | 500 µg/mL (≈ 733 µM) | 500 µg/mL (≈ 733 µM) | 100 µg/mL (≈ 147 µM) | 100 µg/mL (≈ 147 µM) | 50 µg/mL (≈ 73.3 µM) | 25 µg/mL (≈ 36.7 µM)
COc1ccc(/C=C2\SC(c3ccc(O)cc3)N(NC(=O)c3ccc(-n4c(-c5ccc(C)cc5)nc5ccccc5c4=O)cc3)C2=O)cc1 (stereo not given) | 1000 µg/mL (≈ 1500 µM) | 500 µg/mL (≈ 750 µM) | 100 µg/mL (≈ 150 µM) | 100 µg/mL (≈ 150 µM) | 500 µg/mL (≈ 750 µM) | 500 µg/mL (≈ 750 µM) | 100 µg/mL (≈ 150 µM)
COc1ccc(/C=C2\SC(c3ccc(O)cc3)N(NC(=O)c3ccc(-n4c(-c5ccc(C)cc5)nc5ccccc5c4=O)cc3)C2=O)c(O)c1 (stereo not given) | 500 µg/mL (≈ 732 µM) | 500 µg/mL (≈ 732 µM) | 500 µg/mL (≈ 732 µM) | 1000 µg/mL (≈ 1460 µM) | 200 µg/mL (≈ 293 µM) | 250 µg/mL (≈ 366 µM) | 100 µg/mL (≈ 146 µM)
COc1cc(/C=C2\SC(c3ccc(O)cc3)N(NC(=O)c3ccc(-n4c(-c5ccc(C)cc5)nc5ccccc5c4=O)cc3)C2=O)cc(OC)c1OC (stereo not given) | 1000 µg/mL (≈ 1380 µM) | 200 µg/mL (≈ 275 µM) | 1000 µg/mL (≈ 1380 µM) | 100 µg/mL (≈ 138 µM) | 100 µg/mL (≈ 138 µM) | 100 µg/mL (≈ 138 µM) | 100 µg/mL (≈ 138 µM)
Cc1ccc(-c2nc3ccccc3c(=O)n2-c2ccc(C(=O)NN3C(=O)/C(=C/c4ccc(N(C)C)cc4)SC3c3ccc(O)cc3)cc2)cc1 (stereo not given) | 1000 µg/mL (≈ 1470 µM) | 100 µg/mL (≈ 147 µM) | 500 µg/mL (≈ 736 µM) | 100 µg/mL (≈ 147 µM) | 200 µg/mL (≈ 294 µM) | 1000 µg/mL (≈ 1470 µM) | 25 µg/mL (≈ 36.8 µM)
CC1(C)S[C@@H]2[C@H](NC(=O)[C@H](N)c3ccccc3)C(=O)N2[C@H]1C(=O)O [AMPICILLIN] | – | 100 µg/mL (≈ 286 µM) | – | – | 100 µg/mL (≈ 286 µM) | 250 µg/mL (≈ 715 µM) | 100 µg/mL (≈ 286 µM)
COC1=CC(=O)C[C@@H](C)[C@]12Oc1c(Cl)c(OC)cc(OC)c1C2=O [GRISEOFULVIN] | 500 µg/mL (≈ 1420 µM) | – | 100 µg/mL (≈ 283 µM) | 100 µg/mL (≈ 283 µM) | – | – | –
